Results on 15 molecules are retold here after US12428394B2, “2,4-disubstituted pyrimidine derivative, preparation method therefor and use thereof” (CHENGDU ZENITAR BIOMEDICAL TECHNOLOGY CO., LTD., priority 2019, dated 2025).

In test [1] the test system is MV4-11 cells (FLT3-ITD+/+). In words: Inhibition of cell proliferation by MTT experiment, MV4-11. It counts as cell-based, human. The settings on record: Homo sapiens, MV4-11; MTT, 72 h; read-out: IC50 value on cell proliferation inhibition, MV4-11 FLT3-ITD+/+. In outline:
(§1)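 MTT assay in MV4-11, MOLM-13 (FLT3-ITD) and SET-2 (JAK2 V617F) cells at 10,000–15,000 cells/well in IMDM with 10% FBS. Cells are exposed to compound for 72 h at 37 °C, then to MTT for 1–3 h. IC50 is fitted from inhibition rates across concentrations.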

In test [2] the test system is MOLM-13 cells (FLT3-ITD-/+). In words: Inhibition of cell proliferation by MTT experiment, MOLM-13. It counts as cell-based, human. The note with it: Homo sapiens, MOLM-13; MTT, 72 h; read-out: IC50 value on cell proliferation inhibition, MOLM-13 FLT3-ITD-/+. In outline:
as §1

For another test, the system named is SET-2 cells (JAK2 V617F). In words: Inhibition of cell proliferation by MTT experiment, SET-2. The settings on record: Homo sapiens, SET-2; MTT, 72 h; read-out: IC50 value on cell proliferation inhibition, SET-2 (V617F). It counts as cell-based. The gist of the method:
as §1

A further test deals with T1, FLT3 (Homo sapiens, UniProt P36888).
T1 construct: purchased Eurofins
T1 sequence (P36888 27-993): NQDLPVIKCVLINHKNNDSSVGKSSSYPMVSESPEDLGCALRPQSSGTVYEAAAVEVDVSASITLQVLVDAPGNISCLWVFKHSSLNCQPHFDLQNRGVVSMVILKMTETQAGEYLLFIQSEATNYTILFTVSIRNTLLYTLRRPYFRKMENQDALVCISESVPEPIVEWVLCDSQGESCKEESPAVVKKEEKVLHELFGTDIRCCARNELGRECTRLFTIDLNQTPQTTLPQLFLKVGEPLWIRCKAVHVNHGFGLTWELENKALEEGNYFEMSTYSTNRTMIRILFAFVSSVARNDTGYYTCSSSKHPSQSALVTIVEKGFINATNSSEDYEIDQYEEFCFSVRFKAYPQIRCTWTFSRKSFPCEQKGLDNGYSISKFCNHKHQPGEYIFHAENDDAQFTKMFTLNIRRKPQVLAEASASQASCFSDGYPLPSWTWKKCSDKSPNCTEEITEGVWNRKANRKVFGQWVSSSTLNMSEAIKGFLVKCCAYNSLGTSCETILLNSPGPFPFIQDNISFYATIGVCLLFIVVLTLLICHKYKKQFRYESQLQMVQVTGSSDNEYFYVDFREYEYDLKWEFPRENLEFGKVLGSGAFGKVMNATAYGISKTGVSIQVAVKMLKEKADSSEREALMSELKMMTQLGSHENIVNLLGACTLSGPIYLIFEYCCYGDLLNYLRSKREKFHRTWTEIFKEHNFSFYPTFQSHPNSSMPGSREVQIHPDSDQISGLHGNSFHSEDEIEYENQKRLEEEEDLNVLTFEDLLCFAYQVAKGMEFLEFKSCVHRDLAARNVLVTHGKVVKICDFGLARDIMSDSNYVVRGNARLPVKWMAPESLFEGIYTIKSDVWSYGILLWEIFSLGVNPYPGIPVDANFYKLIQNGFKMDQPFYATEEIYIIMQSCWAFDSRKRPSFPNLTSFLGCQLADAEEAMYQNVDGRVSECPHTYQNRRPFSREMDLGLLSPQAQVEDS
The experiment in a line: In vitro kinase activity experiment, FLT3. It counts as biochemical. The note with it: 40 min; inhibition rate of enzyme at 500 nM; measured by Eurofins; read-out: Kinase activity @ 500 nM (%) FLT3. In outline: (§2)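 Reactions began on MgATP addition after the kinase, substrate, γ33P-ATP, 10 mM magnesium acetate and compound series were mixed in MOPS buffer pH 7.0 with EDTA and MnCl2. After 40 min at room temperature, phosphate quench, filter-mat capture and washing, incorporated 33P was measured by scintillation counting.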

The next test concerns the target T2, JAK2 (Homo sapiens, UniProt O60674).
T2 construct: purchased Eurofins
In words: In vitro kinase activity experiment, JAK2. The settings on record: inhibition rate of enzyme at 500 nM; measured by Eurofins. It counts as biochemical. In outline:
as §2

Molecules are shown by their SMILES.

T2 sequence (O60674 whole entry): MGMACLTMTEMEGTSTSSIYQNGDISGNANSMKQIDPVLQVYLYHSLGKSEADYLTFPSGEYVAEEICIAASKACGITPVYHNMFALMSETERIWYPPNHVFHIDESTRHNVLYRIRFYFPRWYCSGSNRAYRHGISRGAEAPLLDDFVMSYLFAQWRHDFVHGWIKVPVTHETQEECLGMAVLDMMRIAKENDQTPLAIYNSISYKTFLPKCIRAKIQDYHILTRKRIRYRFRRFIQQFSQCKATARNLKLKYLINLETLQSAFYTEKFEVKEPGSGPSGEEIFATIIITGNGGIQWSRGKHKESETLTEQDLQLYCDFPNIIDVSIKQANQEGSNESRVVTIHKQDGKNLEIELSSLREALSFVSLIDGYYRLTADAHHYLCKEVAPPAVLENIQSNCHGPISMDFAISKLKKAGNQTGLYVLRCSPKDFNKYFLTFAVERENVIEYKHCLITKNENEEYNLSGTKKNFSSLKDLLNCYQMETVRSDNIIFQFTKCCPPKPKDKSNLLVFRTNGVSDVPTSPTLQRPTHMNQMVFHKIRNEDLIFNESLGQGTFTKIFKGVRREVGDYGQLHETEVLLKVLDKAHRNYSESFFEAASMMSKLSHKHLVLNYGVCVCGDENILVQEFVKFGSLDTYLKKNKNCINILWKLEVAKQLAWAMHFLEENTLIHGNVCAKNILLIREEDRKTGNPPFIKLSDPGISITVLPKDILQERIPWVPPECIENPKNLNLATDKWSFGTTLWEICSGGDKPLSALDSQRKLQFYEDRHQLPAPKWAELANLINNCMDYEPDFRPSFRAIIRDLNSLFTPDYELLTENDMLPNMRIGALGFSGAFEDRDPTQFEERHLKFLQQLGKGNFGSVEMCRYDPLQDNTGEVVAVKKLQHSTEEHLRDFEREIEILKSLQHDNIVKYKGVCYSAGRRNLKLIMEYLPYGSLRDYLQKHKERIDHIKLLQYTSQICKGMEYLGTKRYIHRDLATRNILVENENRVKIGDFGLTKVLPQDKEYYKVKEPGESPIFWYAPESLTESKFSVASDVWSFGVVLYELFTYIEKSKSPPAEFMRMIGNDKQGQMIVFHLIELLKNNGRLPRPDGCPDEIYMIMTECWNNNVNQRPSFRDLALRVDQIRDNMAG

For `CCCCN(C)C1CCN(c2ccc(Nc3ncc(C)c(-c4cnn(C(C)C)c4)n3)cc2F)CC1` [CLJ-50, 5-methyl-N-(3-fluoro-4-(4-N-butyl-4-N-methylaminopiperidine-1-yl)phenyl)-4-(1-isopropyl-1H-pyrazole-4-yl) pyrimidine-2-amine], the IC50 in test [1] is 100 to 1000 nM; in test [2] it was over 1000 nM; with SET-2 cells (JAK2 V617F) it was over 1000 nM. Further, the inhibition at 0.5 µM at FLT3 was 90%. For the same molecule, the “Kinase activity @ 500 nM (%) JAK2” value at JAK2 is on record as 89%.

As for `Cc1cnc(Nc2ccc(N3CCC(CN(C)CCN4CCOCC4)CC3)c(F)c2)nc1-c1cnn(C(C)C)c1` [CLJ-61, N-(3-fluoro-4-(4-(methyl(morpholinoethyl)aminomethyl)piperidine-1-yl)phenyl)-4-(1-isopropyl-1H-pyrazole-4-yl)-5-methylpyrimidine-2-amine], the IC50 in test [1] lay in the range of 1 to 10 nM; in test [2], 10 to 100 nM; in the test on SET-2 cells (JAK2 V617F), 100 to 1000 nM. Further, the inhibition at 0.5 µM at FLT3 was found to be 98%. The “Kinase activity @ 500 nM (%) JAK2” value on JAK2 is 99%.

For the molecule `CC(C)N1CCN(Cc2ccc(Nc3ncc(F)c(-c4ccc(CN5CCc6ccccc65)o4)n3)nc2)CC1` [CLJ-3, 5-fluoro-4-(5-(dihydroindole-1-ylmethyl)furan-2-yl)-N-(5-((4-isopropylpiperazine-1-yl)methyl)pyridine-2-yl) pyrimidine-2-amine], the IC50 in test [1] was 100 to 1000 nM; in test [2] it was 100 to 1000 nM; in the test with SET-2 cells (JAK2 V617F) it was over 1000 nM. Also, the inhibition at 0.5 µM on FLT3 was 29%. Moreover, at JAK2, the “Kinase activity @ 500 nM (%) JAK2” value is given as 45%.

Take `COc1cc(Nc2ncc(C)c(-c3cnn(C(C)C)c3)n2)ccc1N1CCC(N(C)C)CC1` [CLJ-39, 5-methyl-N-(3-methoxy-4-(4-dimethylaminopiperidine-1-yl)phenyl)-4-(1-isopropyl-1H-pyrazole-4-yl) pyrimidine-2-amine]: the IC50 in test [1] lay in the range of 10 to 100 nM; in test [2] it was 100 to 1000 nM; in the test with SET-2 cells (JAK2 V617F), 100 to 1000 nM. Further, at FLT3, the inhibition at 0.5 µM stood at 90%. For the same molecule, the “Kinase activity @ 500 nM (%) JAK2” value on JAK2 worked out at 94%.

Regarding `Cc1cnc(Nc2ccc(N3CCC(N(C)CC4CCCO4)CC3)c(F)c2)nc1-c1cnn(C(C)C)c1` (stereo not drawn) [CLJ-53, N-(3-fluoro-4-(4-(methyl((tetrahydrofuran-2-yl)methyl)amino)piperidine-1-yl)phenyl)-4-(1-isopropyl-1H-pyrazole-4-yl)-5-methylpyrimidine-2-amine], the IC50 in test [1] is 1 to 10 nM; in test [2] it was 10 to 100 nM; in the test with SET-2 cells (JAK2 V617F), 100 to 1000 nM. In addition, the inhibition at 0.5 µM at FLT3 was determined as 98%. The “Kinase activity @ 500 nM (%) JAK2” value on JAK2 came out at 100%.

For `CCCCN1CC2(CCN(c3ccc(Nc4ncc(C)c(-c5cnn(C(C)C)c5)n4)cc3F)CC2)C1` [CLJ-73, N-(3-fluoro-4-(2,7-diazaspiro [3.5]nonane-2-butyl-7-yl)phenyl)-4-(1-isopropyl-1H-pyrazole-4-yl)-5-methylpyrimidine-2-amine], the IC50 (in test [1]; in test [2]; with SET-2 cells (JAK2 V617F)) was 100 to 1000 nM throughout. Moreover, the inhibition at 0.5 µM at FLT3 was determined as 97%. Also, the “Kinase activity @ 500 nM (%) JAK2” value on JAK2 is on record as 91%.

With `COc1cc(Nc2ncc(F)c(-c3cnn(C(C)C)c3)n2)ccc1N1CCN(C)CC1` [CLJ-28, 5-fluoro-N-(3-methoxy-4-(4-methylpiperazine-1-yl)phenyl)-4-(1-isopropyl-1H-pyrazol-4-yl) pyrimidine-2-amine], the IC50 (in test [1]; in test [2]; with SET-2 cells (JAK2 V617F)) was over 1000 nM each time. Further, the inhibition at 0.5 µM on FLT3 is 21%. Further, at JAK2, the “Kinase activity @ 500 nM (%) JAK2” value was determined as 25%.

As to `CCN1CC2(CCN(c3ccc(Nc4ncc(C)c(-c5cnn(C(C)C)c5)n4)cc3F)CC2)C1` [CLJ-71, N-(3-fluoro-4-(2,7-diazaspiro [3.5]nonane-2-ethyl-7-yl)phenyl)-4-(1-isopropyl-1H-pyrazole-4-yl)-5-methylpyrimidine-2-amine], the IC50 in test [1] was in the range of 1 to 10 nM; in test [2] it was 10 to 100 nM; in the test with SET-2 cells (JAK2 V617F) it was 100 to 1000 nM. In addition, the inhibition at 0.5 µM at FLT3 was found to be 93%. Besides, the “Kinase activity @ 500 nM (%) JAK2” value at JAK2 was found to be 91%.

As for `CC(C)N1CCN(Cc2ccc(Nc3ncc(F)c(-c4ccc(CN5CCCC5)o4)n3)nc2)CC1` [CLJ-1, 5-fluoro-N-(5-((4-isopropylpiperazine-1-yl)methyl)pyridine-2-yl)-4-(5-(pyrrolidine-1-ylmethyl)furan-2-yl) pyrimidine-2-amine], the IC50 in test [1] is 100 to 1000 nM; in test [2] it was 100 to 1000 nM; in the test on SET-2 cells (JAK2 V617F), over 1000 nM. Moreover, the inhibition at 0.5 µM at FLT3 was 33%. Besides, the “Kinase activity @ 500 nM (%) JAK2” value on JAK2 is recorded as 46%.

For the molecule `Cc1cnc(Nc2ccc(N3CCC(N(C)C(=O)CO)CC3)c(F)c2)nc1-c1cnn(C(C)C)c1` [CLJ-41, N-(1-(2-fluoro-4-((4-(1-isopropyl-1H-pyrazol-4-yl)-5-methylpyrimidine-2-yl)amino)phenyl)piperidine-4-yl)-2-hydroxy-N-methylacetamide], the IC50 in test [1] fell in the range of 10 to 100 nM; in test [2], 100 to 1000 nM; with SET-2 cells (JAK2 V617F), 100 to 1000 nM. Further, at FLT3, the inhibition at 0.5 µM amounted to 97%. Further, the “Kinase activity @ 500 nM (%) JAK2” value on JAK2 was 102%.

For the molecule `CC(C)n1cc(-c2nc(Nc3ccc(N4CCC(N(C)C)CC4)c(F)c3)ncc2F)cn1` [CLJ-36, 5-fluoro-N-(3-fluoro-4-(4-dimethylaminopiperidine-1-yl)phenyl)-4-(1-isopropyl-1H-pyrazole-4-yl) pyrimidine-2-amine], the IC50 in test [1] lay in the range of 10 to 100 nM; in test [2], 10 to 100 nM; with SET-2 cells (JAK2 V617F) it was 100 to 1000 nM. The inhibition at 0.5 µM at FLT3 amounted to 99%. Besides, at JAK2, the “Kinase activity @ 500 nM (%) JAK2” value amounted to 97%.

As to `CN(C)C1CCN(c2ccc(Nc3ncc(F)c(-c4cnn(C5CCCC5)c4)n3)cc2F)CC1` [CLJ-18, 5-fluoro-N-(3-fluoro-4-(4-dimethylaminopiperidine-1-yl)phenyl)-4-(1-cyclopentyl-1H-pyrazole-4-yl) pyrimidine-2-amine], the IC50 in test [1] lay within 10 to 100 nM; in test [2] it was 100 to 1000 nM; in the test on SET-2 cells (JAK2 V617F) it was 100 to 1000 nM. Besides, the inhibition at 0.5 µM on FLT3 was 93%. Also, the “Kinase activity @ 500 nM (%) JAK2” value on JAK2 amounted to 93%.

As to `CCCn1cc(-c2nc(Nc3ccc(N4CCN(CC)CC4)cc3F)ncc2F)cn1` [CLJ-8, 5-fluoro-N-(2-fluoro-4-(4-ethylpiperazine-1-yl)phenyl)-4-(1-propyl-1H-pyrazole-4-yl) pyrimidine-2-amine], the IC50 in test [1] was 100 to 1000 nM; in test [2], 100 to 1000 nM; in the test on SET-2 cells (JAK2 V617F), over 1000 nM. For the same molecule, the inhibition at 0.5 µM at FLT3 worked out at 40%. Moreover, on JAK2, the “Kinase activity @ 500 nM (%) JAK2” value amounted to 30%.

Consider `CN1CCN(c2ccc(Nc3ncc(F)c(-c4cnn(C5CCCC5)c4)n3)cc2F)CC1` [CLJ-16, 5-fluoro-N-(3-fluoro-4-(4-methylpiperazine-1-yl)phenyl)-4-(1-cyclopentyl-1H-pyrazol-4-yl) pyrimidine-2-amine], for which the IC50 is 10 to 100 nM in test [1], 100 to 1000 nM in test [2] and over 1000 nM with SET-2 cells (JAK2 V617F). Moreover, at FLT3, the inhibition at 0.5 µM turned out to be 95%. Besides, the “Kinase activity @ 500 nM (%) JAK2” value at JAK2 was determined as 96%.

For the molecule `CCCn1cc(-c2nc(Nc3ccc(N4CCN(CC)CC4)c(F)c3)ncc2F)cn1` [CLJ-9, 5-fluoro-N-(3-fluoro-4-(4-ethylpiperazine-1-yl)phenyl)-4-(1-propyl-1H-pyrazole-4-yl) pyrimidine-2-amine], the values for the IC50 (in test [1]; in test [2]; with SET-2 cells (JAK2 V617F)) were 10 to 100 nM, 100 to 1000 nM and over 1000 nM, respectively. For the same molecule, at FLT3, the inhibition at 0.5 µM amounted to 20%. The “Kinase activity @ 500 nM (%) JAK2” value at JAK2 was determined as 27%.
